Assay results: patent publication US20200392150A1, “Diaryl-B-Lactam Compound and Preparation Method and Pharmaceutical Use Thereof” (Fudan University, priority 2016, published 2020)
“Also recorded” adds a separate entry of the source.

Experiments:
[1] = tested on: VEGF induced angiogenesis; assay: Matrigel plug assay; type: in vivo, Balb/C nude mice; conditions: nude mice, s.c. matrigel with 100 ng/mL VEGF-A165, 2 weeks
Protocol: 6 weeks old female Balb/C nude mice were purchased from Shanghai Slac Laboratory Animal Co. Ltd. (Shanghai, China). Matrigel containing 100 ng/mL human recombinant VEGF-A165 (Peprotech, Rocky Hill, N.J.) were mixed with indicated concentrations of 69, 70 and 97, or diluent (0.2% DMSO) as negative control at 4° C. Then, 0.5 mL of the matrigel mixture per mouse was injected subcutaneously into nude mice (n=4) in the dorsal region to generate matrigel plugs. 2 weeks later, the mice were sacrificed and matrigel plugs were recovered. Representative data from three independent experiments were shown.

cells = assay: Cell apoptosis analysis (Annexin V/PI flow cytometry); type: cell-based; conditions: 48 h
Protocol: Cell apoptosis was detected using FITC Annexin V Apoptosis Detection Kit (BD Biosciences) according to manufacturer's instructions. Briefly, cells were incubated with indicated concentrations of 69, 70 and 97, CA-4 as positive control or diluent (0.2% DMSO) as negative control for 48 h. Then the cells were harvested, washed twice with PBS, and re-suspended in binding buffer. After being stained with Annexin-V and PI for 15 min in the dark place, cells were subjected to flow cytometry (Cytomics FC 500 MPL, Beckman Coulter) analysis. The results were indicated as mean values from three independent determinations.

KM mice = assay: Acute toxicity assay; type: in vivo; conditions: for No. of dead mice 5-14 days / No. of dead mice 1 day / No. of dead mice 2 days / No. of dead mice 3 days / No. of dead mice 4 days / Survival (%) on day 14 / Total death: single i.p. injection
Protocol: (§1) KM mice were housed individually in a specific pathogen free facility. Groups of mice (n=10 per group, half male and half female) were injected intraperitoneally once with various dosages of 69 (95, 70, 50, 35, 25 mg/kg), 70 (500, 425, 350, 275, 200 mg/kg), 97 (275, 200, 150, 125 and 100 mg/kg) or vehicle (8.3% cremohorp EL and 8.3% alcohol in PBS) as negative control, respectively. 69, 70 and 97 was dissolved in cremeohore EL and alcohol mixture (1:1, v/v) and further diluted with PBS (1:5, v/v). The death of mice were monitored daily and recorded up to 14 days after injection.

Acute toxicity assay = type: in vivo; conditions: both sexes, mouse, in vivo, ip; KM mice, single intraperitoneal injection, 14 days
Protocol: as §1

MDA-MB-231 = assay: In vitro cell growth inhibition assay (MTT); type: cell-based, human; conditions: MDA-MB-231 human breast cancer cell line, 48 h, MTT; read-out: IC50 MDA-MB-231
Outline: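 5000 cells/well, overnight attachment; compounds 48 h (vehicle 0.2% DMSO); MTT 0.5 mg/mL, 4 h, 37° C; formazan in DMSO; A540. IC50 from growth inhibition rates.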

Hela = assay: In vitro cell growth inhibition assay (MTT); type: cell-based, human; conditions: Hela human cervical cancer cell line, 48 h, MTT; read-out: IC50 Hela
Outline: (§2)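 IC50 values come from growth inhibition rates calculated from MTT absorbance at 540 nm. Compound exposure lasted 48 h on cells plated at 5000 per well.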

A2780 = assay: In vitro cell growth inhibition assay (MTT); type: cell-based, human; conditions: A2780 human ovarian cancer cell line, 48 h, MTT; read-out: IC50 A2780
Outline: as §2

SKOV3 = assay: In vitro cell growth inhibition assay (MTT); type: cell-based, human; conditions: SK-OV-3; SKOV-3 human ovarian cancer cell line, 48 h, MTT; read-out: IC50 SKOV3
Outline: as §2

In the case of COc1ccc([C@H]2[C@H](CO)C(=O)N2c2cc(OC)c(OC)c(OC)c2)cc1O [Compound 69, (3R,4R)-4-(3-hydroxy-4-methoxyphenyl)-3-(hydroxymethyl)-1-(3,4,5-trimethoxyphenyl)azetidin-2-one], the “VEGF induced angiogenesis in matrigel plugs” value (from here on “VEGF induced angiogenesis”) [1] is reported as “significantly inhibit VEGF-mediated neovascularization; also recorded: suppressed VEGF induced angiogenesis”, the cellular apoptosis (cells) is reported as “significantly promote apoptosis; also recorded: significantly induce cellular apoptosis” and the “No. of dead mice 5-14 days” value (KM mice; 25 mg/kg) is reported as 0. For the same molecule, the “No. of dead mice 1 day” value (KM mice; 25 mg/kg) was 0, the “No. of dead mice 2 days” value (KM mice; 25 mg/kg) was 0 and the “No. of dead mice 3 days” value (KM mice; 25 mg/kg) was 0. The “No. of dead mice 4 days” value (KM mice; 25 mg/kg) was 0, the “Survival (%) on day 14” value (KM mice; 25 mg/kg) was 100% and the Total death (KM mice; 25 mg/kg) was 0. For the same molecule, the “No. of dead mice 5-14 days” value (KM mice; 35 mg/kg) was 0, the “No. of dead mice 1 day” value (KM mice; 35 mg/kg) was 0 and the “No. of dead mice 2 days” value (KM mice; 35 mg/kg) was 0. The “No. of dead mice 3 days” value (KM mice; 35 mg/kg) was 1, the “No. of dead mice 4 days” value (KM mice; 35 mg/kg) was 0 and the “Survival (%) on day 14” value (KM mice; 35 mg/kg) was 90%. The Total death (KM mice; 35 mg/kg) was 1, the “No. of dead mice 5-14 days” value (KM mice; 50 mg/kg) was 0 and the “No. of dead mice 1 day” value (KM mice; 50 mg/kg) was 0. The “No. of dead mice 2 days” value (KM mice; 50 mg/kg) was 0, the “No. of dead mice 3 days” value (KM mice; 50 mg/kg) was 1 and the “No. of dead mice 4 days” value (KM mice; 50 mg/kg) was 0. For the same molecule, the “Survival (%) on day 14” value (KM mice; 50 mg/kg) was 90%, the Total death (KM mice; 50 mg/kg) was 1 and the “No. of dead mice 5-14 days” value (KM mice; 70 mg/kg) was 1. The “No. of dead mice 1 day” value (KM mice; 70 mg/kg) was 0, the “No. of dead mice 2 days” value (KM mice; 70 mg/kg) was 0 and the “No. of dead mice 3 days” value (KM mice; 70 mg/kg) was 4. For the same molecule, the “No. of dead mice 4 days” value (KM mice; 70 mg/kg) was 2, the “Survival (%) on day 14” value (KM mice; 70 mg/kg) was 30% and the Total death (KM mice; 70 mg/kg) was 7. The “No. of dead mice 5-14 days” value (KM mice; 95 mg/kg) was 1, the “No. of dead mice 1 day” value (KM mice; 95 mg/kg) was 0 and the “No. of dead mice 2 days” value (KM mice; 95 mg/kg) was 0. The “No. of dead mice 3 days” value (KM mice; 95 mg/kg) was 6, the “No. of dead mice 4 days” value (KM mice; 95 mg/kg) was 1 and the “Survival (%) on day 14” value (KM mice; 95 mg/kg) was 20%. For the same molecule, the Total death (KM mice; 95 mg/kg) was 8 and the LD50 (KM mice; single intraperitoneal injection, 14 days) was 61.5 mg/kg.
For COc1ccc([C@H]2[C@@H](C)C(=O)N2c2cc(OC)c(OC)c(OC)c2)cc1O [Compound 70, (3R,4R)-4-(3-hydroxy-4-methoxyphenyl)-3-methyl-1-(3,4,5-trimethoxyphenyl)azetidin-2-one], the “VEGF induced angiogenesis” value [1] was “significantly inhibit VEGF-mediated neovascularization; also recorded: suppressed VEGF induced angiogenesis”, the cellular apoptosis (cells) was “significantly promote apoptosis; also recorded: significantly induce cellular apoptosis” and the LD50 at 14 days (Acute toxicity assay) was over 500 mg/kg. For the same molecule, the “No. of dead mice 5-14 days” value (KM mice; 200 mg/kg) was 0, the “No. of dead mice 1 day” value (KM mice; 200 mg/kg) was 0 and the “No. of dead mice 2 days” value (KM mice; 200 mg/kg) was 0. The “No. of dead mice 3 days” value (KM mice; 200 mg/kg) was 0, the “No. of dead mice 4 days” value (KM mice; 200 mg/kg) was 0 and the “Survival (%) on day 14” value (KM mice; 200 mg/kg) was 100%. For the same molecule, the Total death (KM mice; 200 mg/kg) was 0, the “No. of dead mice 5-14 days” value (KM mice; 275 mg/kg) was 1 and the “No. of dead mice 1 day” value (KM mice; 275 mg/kg) was 0. For the same molecule, the “No. of dead mice 2 days” value (KM mice; 275 mg/kg) was 0, the “No. of dead mice 3 days” value (KM mice; 275 mg/kg) was 0 and the “No. of dead mice 4 days” value (KM mice; 275 mg/kg) was 1. The “Survival (%) on day 14” value (KM mice; 275 mg/kg) was 80%, the Total death (KM mice; 275 mg/kg) was 2 and the “No. of dead mice 5-14 days” value (KM mice; 350 mg/kg) was 0. For the same molecule, the “No. of dead mice 1 day” value (KM mice; 350 mg/kg) was 0, the “No. of dead mice 2 days” value (KM mice; 350 mg/kg) was 0 and the “No. of dead mice 3 days” value (KM mice; 350 mg/kg) was 1. The “No. of dead mice 4 days” value (KM mice; 350 mg/kg) was 0, the “Survival (%) on day 14” value (KM mice; 350 mg/kg) was 90% and the Total death (KM mice; 350 mg/kg) was 1. The “No. of dead mice 5-14 days” value (KM mice; 425 mg/kg) was 0, the “No. of dead mice 1 day” value (KM mice; 425 mg/kg) was 0 and the “No. of dead mice 2 days” value (KM mice; 425 mg/kg) was 0. For the same molecule, the “No. of dead mice 3 days” value (KM mice; 425 mg/kg) was 3, the “No. of dead mice 4 days” value (KM mice; 425 mg/kg) was 0 and the “Survival (%) on day 14” value (KM mice; 425 mg/kg) was 70%. For the same molecule, the Total death (KM mice; 425 mg/kg) was 3, the “No. of dead mice 5-14 days” value (KM mice; 500 mg/kg) was 0 and the “No. of dead mice 1 day” value (KM mice; 500 mg/kg) was 0. The “No. of dead mice 2 days” value (KM mice; 500 mg/kg) was 0, the “No. of dead mice 3 days” value (KM mice; 500 mg/kg) was 4 and the “No. of dead mice 4 days” value (KM mice; 500 mg/kg) was 0. For the same molecule, the “Survival (%) on day 14” value (KM mice; 500 mg/kg) was 60%, the Total death (KM mice; 500 mg/kg) was 4 and the IC50 (MDA-MB-231) was 67 nM. It also gave an IC50 (Hela) of 74 nM, an IC50 (A2780) of 35 nM and an IC50 (SKOV3) of 51 nM.
In the case of COc1ccc([C@H]2[C@H](C)C(=O)N2c2cc(OC)c(OC)c(OC)c2)cc1O [Compound 97, (3S,4R)-4-(3-hydroxy-4-methoxyphenyl)-3-methyl-1-(3,4,5-trimethoxyphenyl)azetidin-2-one], the “VEGF induced angiogenesis” value [1] is reported as “significantly inhibit VEGF-mediated neovascularization; also recorded: suppressed VEGF induced angiogenesis”, the cellular apoptosis (cells) is reported as “significantly promote apoptosis; also recorded: significantly induce cellular apoptosis” and the “No. of dead mice 5-14 days” value (KM mice; 100 mg/kg) is reported as 0. For the same molecule, the “No. of dead mice 1 day” value (KM mice; 100 mg/kg) was 0, the “No. of dead mice 2 days” value (KM mice; 100 mg/kg) was 0 and the “No. of dead mice 3 days” value (KM mice; 100 mg/kg) was 1. The “No. of dead mice 4 days” value (KM mice; 100 mg/kg) was 0, the “Survival (%) on day 14” value (KM mice; 100 mg/kg) was 90% and the Total death (KM mice; 100 mg/kg) was 1. The “No. of dead mice 5-14 days” value (KM mice; 125 mg/kg) was 0, the “No. of dead mice 1 day” value (KM mice; 125 mg/kg) was 0 and the “No. of dead mice 2 days” value (KM mice; 125 mg/kg) was 2. For the same molecule, the “No. of dead mice 3 days” value (KM mice; 125 mg/kg) was 1, the “No. of dead mice 4 days” value (KM mice; 125 mg/kg) was 0 and the “Survival (%) on day 14” value (KM mice; 125 mg/kg) was 70%. The Total death (KM mice; 125 mg/kg) was 3, the “No. of dead mice 5-14 days” value (KM mice; 150 mg/kg) was 0 and the “No. of dead mice 1 day” value (KM mice; 150 mg/kg) was 2. For the same molecule, the “No. of dead mice 2 days” value (KM mice; 150 mg/kg) was 4, the “No. of dead mice 3 days” value (KM mice; 150 mg/kg) was 0 and the “No. of dead mice 4 days” value (KM mice; 150 mg/kg) was 0. The “Survival (%) on day 14” value (KM mice; 150 mg/kg) was 40%, the Total death (KM mice; 150 mg/kg) was 6 and the “No. of dead mice 5-14 days” value (KM mice; 200 mg/kg) was 0. The “No. of dead mice 1 day” value (KM mice; 200 mg/kg) was 1, the “No. of dead mice 2 days” value (KM mice; 200 mg/kg) was 4 and the “No. of dead mice 3 days” value (KM mice; 200 mg/kg) was 2. For the same molecule, the “No. of dead mice 4 days” value (KM mice; 200 mg/kg) was 0, the “Survival (%) on day 14” value (KM mice; 200 mg/kg) was 30% and the Total death (KM mice; 200 mg/kg) was 7. For the same molecule, the “No. of dead mice 5-14 days” value (KM mice; 275 mg/kg) was 0, the “No. of dead mice 1 day” value (KM mice; 275 mg/kg) was 2 and the “No. of dead mice 2 days” value (KM mice; 275 mg/kg) was 4. The “No. of dead mice 3 days” value (KM mice; 275 mg/kg) was 2, the “No. of dead mice 4 days” value (KM mice; 275 mg/kg) was 1 and the “Survival (%) on day 14” value (KM mice; 275 mg/kg) was 10%. For the same molecule, the Total death (KM mice; 275 mg/kg) was 9, the IC50 (MDA-MB-231) was 3 nM and the IC50 (Hela) was 1 nM. The IC50 (A2780) was 2 nM and the IC50 (SKOV3) was 3 nM.
